Laboratory results published in patent US20240299353A1, “COMPOSITIONS AND METHODS FOR TREATING […] 5-MEO-DMT” (Alvarius Pharmaceuticals Ltd., priority 2021, published 2024).

What was measured:
rats = assay: Pre-pulse inhibition of startle; type: in vivo; conditions: for treatment effects on PPI: cohort 1 (20 mg/kg 5-MeO-DMT)
Experimental: In this instance the animals were 9 weeks old at the initiation of drug exposures and we selected just the high (20 mg/kg) dose of 5-MeO-DMT from the molecular study. […] Due to the number of behavioral paradigms to be completed by each animal we divided the study into two cohorts staggered by two weeks with 8 animals coming from each cohort to make up the 16 animals for each treatment group. 23 hours after 5-MeO-DMT administration the animals were introduced to the open field arena where they were allowed to freely explore the area for 5 mins. Following the open field test (OFT) animals were returned to their home cage for 2 hours before beginning either the elevated plus maze (EPM) or pre-pulse inhibition (PPI) testing. 24 hours after completing the OFT animals were returned to the chamber for the first session in novel object (NO1) testing. The animals were returned to their home cage for 2 hours before beginning the EPM or PPI test. 24 hours after NO1 the animals returned to the open field chamber for the second session in novel object (N02) testing. After completing N02 animals were returned to their home cage for 2 hours before they underwent the forced swim test (FST) pre-test. 24 hours later the animals were returned to the FS cylinders for the FST. Upon completion of the FST all animals were euthanized. A timeline of this experimental cohort is described in FIG. 8A.
The experiment was conducted as described for cohort 1 for the first 13 days of injections. There are a number of notable differences in experimental procedures between the two cohorts of animals to be highlighted. […] Finally, the dose of 5-MeO-DMT was reduced to 10 mg/kg. The order and timing of all the behavioral paradigms were kept constant between the cohorts. A timeline of this experimental cohort is described in FIG. 8B. Additionally, 5-MeO-DMT administrations were staggered so animals could be observed for the duration of acute drug effects and to ensure recovery prior to the next animal being injected. The typical symptoms of psychedelic drug administration outlined above were reproduced in all animals administered 5-MeO-DMT.
The PPI protocol employed was based on a procedure previously described by Geyer and colleagues (Geyer, M. A., K. Krebs-Thomson, D. L. Braff & N. R. Swerdlow (2001) Pharmacological studies of prepulse inhibition models of sensorimotor gating deficits in schizophrenia: a decade in review. Psychopharmnacology, 156, 117-154). Each rat was restrained in an appropriately sized cylindrical holder that was placed on a movement-sensitive platform and maintained in a soundproof chamber. The animal was allowed to habituate to a white noise background of 70 dB for 5 mins before receiving 5 20 ms startle trials of 120 dB separated by randomized intervals of 10-20 s. Immediately thereafter, each rat received 5 separate presentations with one of the pre-pulse stimuli of 72, 76, 80, or 84 dB followed 100 ms later by the 120 dB acoustic startle stimulus. Each trial was separated by a time interval of 10-20 s. The 4 pre-pulse stimuli were delivered in a randomised manner and included periods in which there was no pre-pulse or startle stimulus. The session terminated with five further startle trials. Randomisation of the sound signals delivered and quantification of the startle movements were recorded from the movement-sensitive platform. Signals were integrated using the software supplied by the manufacturers of equipment hardware (MED-Associates Inc., St. Albans, VT, USA).

GR = assay: Western blot of GR in hippocampus, chronic cocaine ± 5-MeO-DMT; type: in vivo, Male Wistar rats
Source text: Male Wistar rats aged 7 weeks were acclimatized to the facility for 1 week prior to the beginning of the study. […] Animals were euthanized 23- or 119-hours following vehicle or 5-MeO-DMT administration.
Following euthanasia brain regions of interest were isolated. Briefly, the olfactory bulbs were removed before the brain was placed in a rat brain matrix (FIG. 2A). Sterile blades were inserted at positions 2 and 3 (FIG. 2B) to extract a coronal slice containing the Bregma+˜0.2-+˜2.2 coordinates (FIG. 2C). From this tissue slice a blunted 12 G needle was used to punch dissect the NAc and dorsal striatum (DS) (FIG. 2D-2E) identified using the rat brain atlas (Panxinos and Watson 2nd edition). The PFC, hippocampus (Hip) and amygdala (Amyg) were then blunt dissected (FIG. 3A-3D). All regions were frozen in liquid nitrogen and stored at −80° C. until processed.
These treatment groups were used for the molecular assessment of addiction-linked markers.
Determination of protein concentration—a bicinchoninic acid assay (BCA, ThermoFisher) was conducted to determine the total protein concentration in tissue lysates following manufacturer's instructions. […] For tissue lysates a 1:10 dilution was performed with cell lysis buffer to ensure absorbance values lay within the working range established by the standards. […] The plate was covered and incubated for 30 mins at 37° C. before absorbance was read at 562 nm on a plate reader (SpectraMax M3). The absorbance values were used to form a standard curve of known protein concentrations and protein concentration of samples were derived using the equation of the line. […]
SDS-PAGE and Western Blotting—Following equalisation of protein concentrations, 6× sample loading buffer (15% SDS, 15% […], 50% glycerol, 0.01% bromophenol blue, […]) was added to each sample using a dilution factor of 1:5 of the total volumes before boiling at 100° C. for 5 mins. […] The percentage of acrylamide in the resolving or stacking gel was determined by the molecular weight of the protein of interest. […]

In the case of COc1ccc2[nH]cc(CCN(C)C)c2c1 [5-MeO-DMT, 5-methoxy-N,N-dimethyltryptamine], the “treatment effects on PPI” value (rats) is reported as “no treatment effects on PPI”, the “inhibition of the startle response at 80 dB or 84 dB relative to the 72 dB pre-pulse” value (rats; cohort 1, 5-Meo-treated animals) is reported as “significant increase in the inhibition of the startle response” and the “percentage inhibition of startle with change in intensity of the pre-pulse” value (rats; cohort 1, cocaine+20 mg/kg 5-MeO-DMT combination) is reported as “no change in percentage inhibition of startle”. The “PPI at the 80 dB pre-pulse” value (rats; cohort 1, combination group relative to control and 5-MeO-DMT alone) was “significant attenuation of PPI”, the “treatment effect on PPI” value (rats; cohort 2 (10 mg/kg 5-MeO-DMT)) was “no treatment effect on PPI” and the “PPI at 84 dB relative to 72 dB pre-pulse” value (rats; cohort 2, cocaine+10 mg/kg 5-MeO-DMT) was “significant increase in PPI”. For the same compound, the GR expression (GR; 24 h and 120 h, 5-MeO-DMT) was “no 5-Meo-associated regulation of GR”.

For COC(=O)[C@H]1[C@@H](OC(=O)c2ccccc2)C[C@@H]2CC[C@H]1N2C.Cl [cocaine, cocaine hydrochloride, reference compound], the “treatment effects on PPI” value (rats) was “no treatment effects on PPI”, the “percentage inhibition of startle with change in intensity of the pre-pulse” value (rats; cohort 1, cocaine alone) was “no change in percentage inhibition of startle” and the GR expression (GR; 24 h, cocaine, p=0.0434, no post hoc differences) was “significantly affected GR expression”. The GR expression (GR; 120 h, cocaine effect) was “not detectable”.
